Measurements reported in the kinase profiling compilation of Christmann-Franck et al. (2016).
Several values for one entry are separate records, joined by “and”; a condition that tells them apart may be missing. Identical values can stand only once.

Columns and labels:
Assay in all cases: radiometric filter-binding kinase assay, Kinase HotSpot
Settings in all cases: compound 0.5 µM; ATP 10 µM
EPHA3 (human) = EPHA3 (human) (UniProt P29320)
CDK3 CCNE1 (human) = CDK3 CCNE1 (human) (UniProt Q00526+P24864)
CLK2 (human) = CLK2 (human) (UniProt P49760)
NLK (human) = NLK (human) (UniProt Q9UBE8)
NEK6 (human) = NEK6 (human) (UniProt Q9HC98)
WNK2 (human) = WNK2 (human) (UniProt Q9Y3S1)
MAP4K4 (human) = MAP4K4 (human) (UniProt O95819)
RPS6KA1 KD1 KD2 (human) = RPS6KA1 KD1 KD2 (human) (UniProt Q15418)
FGR (human) = FGR (human) (UniProt P09769)
FES (human) = FES (human) (UniProt P07332)
CHUK (human) = CHUK (human) (UniProt O15111)
TNK2 (human) = TNK2 (human) (UniProt Q07912)
MELK (human) = MELK (human) (UniProt Q14680)
ULK2 (human) = ULK2 (human) (UniProt Q8IYT8)
CSNK1G2 (human) = CSNK1G2 (human) (UniProt P78368)
LTK (human) = LTK (human) (UniProt P29376)
BLK (human) = BLK (human) (UniProt P51451)
RPS6KB1 (human) = RPS6KB1 (human) (UniProt P23443)
LCK (human) = LCK (human) (UniProt P06239)
PTK2 (human) = PTK2 (human) (UniProt Q05397)
CDK6 CCND1 (human) = CDK6 CCND1 (human) (UniProt Q00534+P24385)
PRKCB2 (human) = PRKCB2 (human) (UniProt P05771)
MERTK (human) = MERTK (human) (UniProt Q12866)
MAPK9 (human) = MAPK9 (human) (UniProt P45984)
PKN1 (human) = PKN1 (human) (UniProt Q16512)
RPS6KA6 KD1 KD2 (human) = RPS6KA6 KD1 KD2 (human) (UniProt Q9UK32)
TEC (human) = TEC (human) (UniProt P42680)
CHEK1 (human) = CHEK1 (human) (UniProt O14757)
MAPK10 (human) = MAPK10 (human) (UniProt P53779)
FYN (human) = FYN (human) (UniProt P06241)
PRKG1 (human) = PRKG1 (human) (UniProt Q13976)
MAP3K9 (human) = MAP3K9 (human) (UniProt P80192)
ACVR1 (human) = ACVR1 (human) (UniProt Q04771)
CAMK2D (human) = CAMK2D (human) (UniProt Q13557)
HIPK4 (human) = HIPK4 (human) (UniProt Q8NE63)
PRKCA (human) = PRKCA (human) (UniProt P17252)
CLK1 (human) = CLK1 (human) (UniProt P49759)
HCK (human) = HCK (human) (UniProt P08631)
MYLK (human) = MYLK (human) (UniProt Q15746)
MATK (human) = MATK (human) (UniProt P42679)
CDK4 CCND1 (human) = CDK4 CCND1 (human) (UniProt P24385+P11802)
PDGFRB (human) = PDGFRB (human) (UniProt P09619)

Chain of PRKG1 (human) (Q13976 whole entry, looked up): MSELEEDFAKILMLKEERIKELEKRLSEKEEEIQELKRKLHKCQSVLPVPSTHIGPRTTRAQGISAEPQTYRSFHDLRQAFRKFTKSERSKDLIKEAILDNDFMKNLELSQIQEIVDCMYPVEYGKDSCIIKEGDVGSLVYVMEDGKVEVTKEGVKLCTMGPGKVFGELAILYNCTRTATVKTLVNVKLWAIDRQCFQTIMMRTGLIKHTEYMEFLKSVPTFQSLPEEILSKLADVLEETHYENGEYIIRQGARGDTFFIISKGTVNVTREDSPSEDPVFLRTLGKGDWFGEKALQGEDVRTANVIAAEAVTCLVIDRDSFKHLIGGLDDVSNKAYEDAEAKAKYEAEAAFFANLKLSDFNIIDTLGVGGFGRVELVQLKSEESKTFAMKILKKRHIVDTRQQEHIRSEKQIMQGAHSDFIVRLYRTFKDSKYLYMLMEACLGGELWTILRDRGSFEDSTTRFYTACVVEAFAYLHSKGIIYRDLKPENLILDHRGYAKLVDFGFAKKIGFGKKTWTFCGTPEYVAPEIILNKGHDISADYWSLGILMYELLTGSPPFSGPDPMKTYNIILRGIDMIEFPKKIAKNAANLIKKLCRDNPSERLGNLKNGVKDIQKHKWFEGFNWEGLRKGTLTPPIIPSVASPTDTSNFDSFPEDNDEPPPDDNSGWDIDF
Chain of PRKCB2 (human) (P05771 whole entry, looked up): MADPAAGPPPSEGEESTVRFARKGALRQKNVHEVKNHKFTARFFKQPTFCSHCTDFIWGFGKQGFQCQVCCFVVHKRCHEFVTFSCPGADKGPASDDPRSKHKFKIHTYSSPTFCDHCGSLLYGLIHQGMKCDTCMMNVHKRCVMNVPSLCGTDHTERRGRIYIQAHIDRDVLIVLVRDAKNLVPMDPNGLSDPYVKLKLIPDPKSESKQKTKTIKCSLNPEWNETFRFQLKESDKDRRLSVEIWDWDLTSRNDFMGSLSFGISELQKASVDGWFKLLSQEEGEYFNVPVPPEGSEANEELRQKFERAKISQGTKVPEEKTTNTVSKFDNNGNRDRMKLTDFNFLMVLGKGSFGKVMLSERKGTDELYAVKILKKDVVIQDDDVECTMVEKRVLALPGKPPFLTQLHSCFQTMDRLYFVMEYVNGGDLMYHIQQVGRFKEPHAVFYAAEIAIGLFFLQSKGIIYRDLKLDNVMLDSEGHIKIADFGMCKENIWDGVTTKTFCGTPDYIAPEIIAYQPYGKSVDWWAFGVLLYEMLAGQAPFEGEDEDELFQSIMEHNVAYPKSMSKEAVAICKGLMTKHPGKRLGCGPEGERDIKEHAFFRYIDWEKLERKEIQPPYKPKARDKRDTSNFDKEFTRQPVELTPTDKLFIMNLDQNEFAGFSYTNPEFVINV
Chain of PKN1 (human) (Q16512 whole entry, looked up): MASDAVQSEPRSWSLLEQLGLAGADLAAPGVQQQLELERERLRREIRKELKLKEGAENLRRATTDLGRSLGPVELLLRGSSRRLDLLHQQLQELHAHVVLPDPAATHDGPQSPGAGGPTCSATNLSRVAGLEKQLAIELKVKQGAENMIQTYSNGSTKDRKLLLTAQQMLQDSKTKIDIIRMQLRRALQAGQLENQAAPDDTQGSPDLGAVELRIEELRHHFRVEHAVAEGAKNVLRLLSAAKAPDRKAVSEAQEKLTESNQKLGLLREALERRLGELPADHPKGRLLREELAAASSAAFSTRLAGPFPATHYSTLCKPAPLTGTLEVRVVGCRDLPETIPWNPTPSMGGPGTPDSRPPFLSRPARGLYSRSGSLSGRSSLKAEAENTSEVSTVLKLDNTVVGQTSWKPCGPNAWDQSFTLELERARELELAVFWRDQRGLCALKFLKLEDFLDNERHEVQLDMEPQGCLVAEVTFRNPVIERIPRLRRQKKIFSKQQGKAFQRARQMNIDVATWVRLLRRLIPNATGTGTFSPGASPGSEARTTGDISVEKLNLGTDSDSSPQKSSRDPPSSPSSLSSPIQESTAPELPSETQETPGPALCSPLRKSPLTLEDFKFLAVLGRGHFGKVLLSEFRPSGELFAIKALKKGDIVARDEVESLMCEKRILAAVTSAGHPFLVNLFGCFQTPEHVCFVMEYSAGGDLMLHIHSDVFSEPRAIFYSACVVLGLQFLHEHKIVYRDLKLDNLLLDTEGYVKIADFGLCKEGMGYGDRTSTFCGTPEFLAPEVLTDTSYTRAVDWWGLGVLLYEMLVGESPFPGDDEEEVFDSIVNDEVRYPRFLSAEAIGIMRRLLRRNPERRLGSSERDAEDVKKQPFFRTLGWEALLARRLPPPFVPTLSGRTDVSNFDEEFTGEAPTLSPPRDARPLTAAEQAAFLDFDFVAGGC
Chain of FYN (human) (P06241 whole entry, looked up): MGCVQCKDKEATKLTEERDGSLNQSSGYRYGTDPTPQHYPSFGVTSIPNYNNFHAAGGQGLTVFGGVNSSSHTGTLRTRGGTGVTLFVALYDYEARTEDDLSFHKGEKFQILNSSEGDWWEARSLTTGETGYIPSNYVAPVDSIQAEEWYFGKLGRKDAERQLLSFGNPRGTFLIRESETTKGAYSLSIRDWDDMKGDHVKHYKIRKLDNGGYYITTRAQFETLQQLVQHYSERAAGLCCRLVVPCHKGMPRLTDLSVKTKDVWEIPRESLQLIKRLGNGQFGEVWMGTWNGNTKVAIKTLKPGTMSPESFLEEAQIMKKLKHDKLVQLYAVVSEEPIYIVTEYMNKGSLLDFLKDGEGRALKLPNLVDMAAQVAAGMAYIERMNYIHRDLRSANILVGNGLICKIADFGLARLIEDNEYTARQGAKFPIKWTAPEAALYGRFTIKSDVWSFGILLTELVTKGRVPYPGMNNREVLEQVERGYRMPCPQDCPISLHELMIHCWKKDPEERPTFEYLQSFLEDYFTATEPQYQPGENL
Chain of ACVR1 (human) (Q04771 whole entry, looked up): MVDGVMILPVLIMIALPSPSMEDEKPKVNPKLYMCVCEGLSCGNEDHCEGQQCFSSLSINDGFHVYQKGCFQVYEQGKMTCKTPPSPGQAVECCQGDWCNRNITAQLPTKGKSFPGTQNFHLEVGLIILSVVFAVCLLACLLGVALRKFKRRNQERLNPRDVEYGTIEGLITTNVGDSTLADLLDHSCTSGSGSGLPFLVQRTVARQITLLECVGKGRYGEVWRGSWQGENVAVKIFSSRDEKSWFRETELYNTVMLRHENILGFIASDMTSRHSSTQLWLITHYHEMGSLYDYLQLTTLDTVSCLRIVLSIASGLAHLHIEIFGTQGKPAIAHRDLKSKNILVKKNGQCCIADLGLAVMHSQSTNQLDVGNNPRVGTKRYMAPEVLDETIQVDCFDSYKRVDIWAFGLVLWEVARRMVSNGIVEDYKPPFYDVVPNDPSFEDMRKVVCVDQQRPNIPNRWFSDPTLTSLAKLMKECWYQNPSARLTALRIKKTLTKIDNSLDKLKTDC
Chain of FES (human) (P07332 whole entry, looked up): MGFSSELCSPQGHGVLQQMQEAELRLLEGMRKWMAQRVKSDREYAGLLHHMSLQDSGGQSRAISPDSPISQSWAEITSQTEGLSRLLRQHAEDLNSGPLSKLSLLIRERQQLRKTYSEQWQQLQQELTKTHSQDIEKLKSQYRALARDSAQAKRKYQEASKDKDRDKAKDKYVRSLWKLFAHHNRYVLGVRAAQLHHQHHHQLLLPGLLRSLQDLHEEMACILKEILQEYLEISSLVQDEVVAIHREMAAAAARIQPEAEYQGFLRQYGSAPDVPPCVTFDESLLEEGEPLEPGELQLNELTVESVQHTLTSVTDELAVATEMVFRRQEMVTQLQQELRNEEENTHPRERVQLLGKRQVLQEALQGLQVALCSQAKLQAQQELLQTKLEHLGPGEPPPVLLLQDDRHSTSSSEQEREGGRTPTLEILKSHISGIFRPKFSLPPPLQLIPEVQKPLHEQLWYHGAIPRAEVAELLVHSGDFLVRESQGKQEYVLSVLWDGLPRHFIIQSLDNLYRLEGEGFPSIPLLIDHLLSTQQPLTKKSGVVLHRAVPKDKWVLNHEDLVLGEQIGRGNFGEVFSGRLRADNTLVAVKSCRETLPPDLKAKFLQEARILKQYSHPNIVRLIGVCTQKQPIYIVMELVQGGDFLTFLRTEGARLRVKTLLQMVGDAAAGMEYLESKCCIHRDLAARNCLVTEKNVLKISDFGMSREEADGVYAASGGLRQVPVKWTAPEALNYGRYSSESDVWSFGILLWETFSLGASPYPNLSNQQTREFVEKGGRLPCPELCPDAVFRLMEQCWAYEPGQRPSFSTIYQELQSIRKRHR
Chain of TEC (human) (P42680 whole entry, looked up): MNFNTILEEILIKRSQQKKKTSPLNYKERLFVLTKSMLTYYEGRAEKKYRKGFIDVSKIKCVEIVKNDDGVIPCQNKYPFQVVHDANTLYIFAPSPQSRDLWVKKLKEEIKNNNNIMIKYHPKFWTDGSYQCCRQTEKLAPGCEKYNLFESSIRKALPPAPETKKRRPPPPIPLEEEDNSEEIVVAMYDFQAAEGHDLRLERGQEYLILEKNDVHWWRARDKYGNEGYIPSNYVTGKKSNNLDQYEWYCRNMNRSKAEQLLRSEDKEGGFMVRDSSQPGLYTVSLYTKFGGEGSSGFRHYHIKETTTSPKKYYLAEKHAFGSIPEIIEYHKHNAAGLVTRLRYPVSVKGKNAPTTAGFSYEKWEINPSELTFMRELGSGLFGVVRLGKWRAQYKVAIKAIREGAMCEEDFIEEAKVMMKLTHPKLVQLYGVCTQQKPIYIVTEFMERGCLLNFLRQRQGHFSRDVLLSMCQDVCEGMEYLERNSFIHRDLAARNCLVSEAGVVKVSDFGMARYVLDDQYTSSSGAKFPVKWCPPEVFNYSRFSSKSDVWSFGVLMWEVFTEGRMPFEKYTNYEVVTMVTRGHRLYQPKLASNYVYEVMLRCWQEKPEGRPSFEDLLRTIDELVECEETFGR

COc1cc2ncnc(N3CCN(C(=O)Nc4ccc(Oc5ccccc5)cc4)CC3)c2cc1OC
residual activity (EPHA3 (human)): 93.7% | residual activity (CDK3 CCNE1 (human)): 82% | residual activity (CLK2 (human)): 81.3% | residual activity (NLK (human)): 99.9% | residual activity (NEK6 (human)): 103% | residual activity (WNK2 (human)): 102% | residual activity (MAP4K4 (human)): 88.4% | residual activity (RPS6KA1 KD1 KD2 (human)): 82% | residual activity (FGR (human)): 98.8% | residual activity (FES (human)): 98.3% | residual activity (CHUK (human)): 96% | residual activity (TNK2 (human)): 77.1% | residual activity (MELK (human)): 94.9% | residual activity (ULK2 (human)): 102% | residual activity (CSNK1G2 (human)): 94.6% | residual activity (LTK (human)): 89.8% | residual activity (BLK (human)): 113% | residual activity (RPS6KB1 (human)): 89.4% | residual activity (LCK (human)): 92.3% | residual activity (PTK2 (human)): 89.4% | residual activity (CDK6 CCND1 (human)): 95.1% | residual activity (PRKCB2 (human)): 102% | residual activity (MERTK (human)): 60% | residual activity (MAPK9 (human)): 88.4% | residual activity (PKN1 (human)): 103% | residual activity (RPS6KA6 KD1 KD2 (human)): 92% | residual activity (TEC (human)): 101% | residual activity (CHEK1 (human)): 99.4% | residual activity (MAPK10 (human)): 98.2% | residual activity (FYN (human)): 112% | residual activity (PRKG1 (human)): 85.6% and 98.7% | residual activity (MAP3K9 (human)): 100% | residual activity (ACVR1 (human)): 100% | residual activity (CAMK2D (human)): 70.9% | residual activity (HIPK4 (human)): 75.4% | residual activity (PRKCA (human)): 98% | residual activity (CLK1 (human)): 89.4% | residual activity (HCK (human)): 91.7% | residual activity (MYLK (human)): 101% | residual activity (MATK (human)): 96.8% | residual activity (CDK4 CCND1 (human)): 101%

CCn1cnc2c(Nc3cccc(Cl)c3)nc(N[C@@H]3CCCC[C@@H]3N)nc21
residual activity (EPHA3 (human)): 85.7% | residual activity (CDK3 CCNE1 (human)): 49.7% | residual activity (CLK2 (human)): 26.6% | residual activity (NLK (human)): 90.8% | residual activity (NEK6 (human)): 102% | residual activity (WNK2 (human)): 94.1% | residual activity (MAP4K4 (human)): 72.5% | residual activity (FGR (human)): 45.8% | residual activity (FES (human)): 83.5% | residual activity (CHUK (human)): 91.7% | residual activity (TNK2 (human)): 92.4% | residual activity (MELK (human)): 77% | residual activity (ULK2 (human)): 94.2% | residual activity (CSNK1G2 (human)): 69.5% | residual activity (LTK (human)): 93.8% | residual activity (BLK (human)): 87.1% | residual activity (RPS6KB1 (human)): 97.3% | residual activity (LCK (human)): 89.5% | residual activity (PTK2 (human)): 83.1% | residual activity (CDK6 CCND1 (human)): 60.9% | residual activity (PRKCB2 (human)): 79.4% | residual activity (MERTK (human)): 76.2% | residual activity (MAPK9 (human)): 102% | residual activity (PKN1 (human)): 69.9% | residual activity (RPS6KA6 KD1 KD2 (human)): 75.7% | residual activity (TEC (human)): 123% | residual activity (CHEK1 (human)): 85.8% | residual activity (PDGFRB (human)): 99.6% | residual activity (MAPK10 (human)): 98.8% | residual activity (FYN (human)): 48.6% | residual activity (PRKG1 (human)): 91.4% and 91.8% | residual activity (MAP3K9 (human)): 54.9% | residual activity (ACVR1 (human)): 92.7% | residual activity (CAMK2D (human)): 89% | residual activity (HIPK4 (human)): 88.4% | residual activity (PRKCA (human)): 68.2% | residual activity (CLK1 (human)): 89.3% | residual activity (HCK (human)): 69.6% | residual activity (MYLK (human)): 91% | residual activity (MATK (human)): 88.3% | residual activity (CDK4 CCND1 (human)): 89.9%
